According to US20110166097A1, “TAXANE COMPOUNDS FOR TREATING EYE DISEASE” (Osiris Therapeutics, Inc., priority 2008, published 2011):

Assays:
[1] = tested on: choroidal neovascularization by laser burns of the eye; experiment: Choroidal neovascularization model (fluorescein angiography leakage score); assay type: in vivo; conditions: rats
Method: Groups of 8 rats/dosage group or vehicle are neovascularized by laser burns on the eye. Afterwards, the eye is immediately treated with a cobalamin-paclitaxel bioconjugate prepared in accordance with Example 1 at a dose of 1.5 μg/2 μL, 5.0 μg/2 μL, and 15 μg/2 μL (indicated as B.C. in FIG. 1). The treatment regimen also includes a vehicle and Kenacort Retard® (4% triamcinolone acetonide), as a positive control. Each treatment is scored at 7, 14, and 21 days post-treatment by infusing the eye with fluorescein and scoring the leakage using angiography. A score of 0 indicates no leakage while a score of 3 indicates severe leakage.

[2] = tested on: viable circulating endothelial cell precursors (CEPS); experiment: Cobalamin-paclitaxel bioconjugate dose study: viable circulating endothelial cell precursors; assay type: in vivo; conditions: mice
Method: (§1) The effects on counts of viable circulating endothelial cell precursors and white blood cells are measured after 28 days. Corresponding amounts of the cobalamin-paclitaxel bioconjugate, viable circulating endothelial cell precursors (CEPS), and white blood cells are presented in the Table 1:

[3] = tested on: bFGF-stimulated formation of new blood vessel in the Matrigel plug; experiment: Matrigel plug perfusion in vivo assay; conditions: mice, 2, 6 and 30 mg/kg (paclitaxel units), oral gavage
Method: A Matrigel® plug perfusion in vivo assay is performed to determine the anti-angiogenic efficacy of the cobalamin-paclitaxel bioconjugate (Cob-Pac) of Example 1. The assay uses Matrigel®, a gelatinous protein mixture secreted by mouse tumor cells (BD Biosciences, San Jose, Calif.), to duplicate tissue environments. Matrigel® is liquid at room temperature, but when injected into the animal, forms a solid plug. If a growth vessel stimulant such as basic fibroblast growth factor (bFGF) is mixed with the Matrigel®, the bFGF stimulates the formation of new blood vessel in the plug, which can be monitored in the animal via fluorescence techniques. In the current study, Matrigel® is injected either alone or with bFGF subcutaneously into mice.

[4] = tested on: choroidal neovascularization lesions; experiment: Lesion study (flat mount evaluation, choroidal neovascularization); assay type: in vivo, rats; conditions: after 21 days
Method: In another study, flat mount evaluation of the eyes can be carried out at the end of the study because angiography may not provide a full evaluation of the effect of the drug. At the end of the study, the eyes are removed, histologically processed and all lesions can be seen (including those that can not be detected by angiography). Such an evaluation can be used as a better measure of the choroidal neovascularization model.
Dosages used are 1.5 μg/2 μL, 5.0 μg/2 μL, and 15 μg/2 μL. The treatments also include a vehicle and Kenacort Retard® (4% triamcinolone acetonide). After 21 days, the eyes are removed, histologically processed, and the lesion size scored in μm^3.

white blood cells = experiment: Cobalamin-paclitaxel bioconjugate dose study: white blood cell count; assay type: in vivo; conditions: mice, about 2 mg/kg, 28 days
Method: as §1

Water solubility = assay type: physicochemical; conditions: conjugated to cobalt atom of cobalamin

With `CC(=O)O[C@H]1C(=O)[C@@]2(C)C([C@H](OC(=O)c3ccccc3)[C@]3(O)C[C@H](OC(=O)[C@H](OC(=O)C[NH+](C)CC[CH2][Co+][N]4/C5=C(/C)C6=N/C(=C\C7=NC(=C(/C)C8=NC(C(C)C4C(CC(N)=O)C5(C)CCC(=O)NCC(C)OP(=O)([O-])OC4C(CO)OC(n5cnc9cc(C)c(C)cc95)C4O)C(C)(CC(N)=O)C8CCC(N)=O)/C(C)(CC(N)=O)C7CCC(N)=O)C(C)(C)C6CCC(N)=O)[C@@H](NC(=O)c4ccccc4)c4ccccc4)C(C)=C1C3(C)C)[C@]1(OC(C)=O)COC1C[C@@H]2O.[Cl-]` (stereo partly drawn) [cobalamin-paclitaxel bioconjugate, Cbl-(CH2)3N(CH3)CH2COO-2′-PTX] the “Anti-angiogenic result by angiography leakage score (FIG. 1)” value ([1]; after 7 days, intermediate and high doses (5.0 μg/2 μL and 15 μg/2 μL) to the eye) was “show anti-angiogenic results”, the “Anti-angiogenic result by angiography leakage score (FIG. 1)” value ([1]; after 14 days, high dose (15 μg/2 μL) to the eye) was “still provides anti-angiogenic benefit” and the “Most effective dose (viable CEPS)” value ([2]; 28-day dose study, dose as paclitaxel) was “about 2 mg/kg”. For the same compound, the “Anti-angiogenic effect on viable CEPS” value ([2]; at each dose (1.5-30 mg/kg), 28 days) was “marked decrease in viable CEPS”, the “Effect on growth of new blood vessels in Matrigel plug” value [3] was “inhibits the growth of new blood vessels in each instance shown” and the “Number of blood vessel lesions (FIG. 2)” value ([4]; rats, 1.5, 5.0 and 15 μg/2 μL to the eye) was “decrease in a concentration dependent manner”. For the same compound, the “Inhibition of new blood vessel growth (lesion study)” value ([4]; rats, high and medium concentrations (15 and 5.0 μg/2 μL)) was “efficacious in inhibiting new blood vessel growth”, the “Toxicity by white blood cell count” value (white blood cells) was “no neutropenia” and the solubility (Water solubility) was over 100 mg/mL.
